Results reported in ChEMBL document CHEMBL1141977 (Bioorg Med Chem Lett, 2005).

Columns and labels:
[1] = target: T1, 5-hydroxytryptamine receptor 1A (Homo sapiens) (UniProt P08908); assay: Intrinsic activity towards 5-HT1A receptor using [35S]GTP-gamma-S, binding assay; assay type: functional
T1 sequence (whole entry): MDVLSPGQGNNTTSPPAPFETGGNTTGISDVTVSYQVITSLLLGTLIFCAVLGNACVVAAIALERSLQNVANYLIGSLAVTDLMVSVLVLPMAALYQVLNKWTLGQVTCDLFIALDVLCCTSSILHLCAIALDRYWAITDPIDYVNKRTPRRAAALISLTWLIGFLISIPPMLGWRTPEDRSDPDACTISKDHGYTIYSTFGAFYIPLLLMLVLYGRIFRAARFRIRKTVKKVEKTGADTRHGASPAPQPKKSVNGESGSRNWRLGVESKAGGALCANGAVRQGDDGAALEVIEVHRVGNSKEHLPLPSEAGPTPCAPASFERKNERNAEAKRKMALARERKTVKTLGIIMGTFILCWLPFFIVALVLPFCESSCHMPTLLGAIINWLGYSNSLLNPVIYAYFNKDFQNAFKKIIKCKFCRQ

[2] = target: T2, 5-hydroxytryptamine receptor 1A (Homo sapiens, UniProt P08908); assay: Binding affinity determined against human 5-hydroxytryptamine 1A receptors transfected into CHO cells.; assay type: cell-based
T2 sequence (P08908 whole entry): T1 sequence (whole entry)

[3] = target: Sodium-dependent serotonin transporter (Rattus norvegicus, UniProt P31652); assay: Binding affinity determined against Serotonin transporter determined by displacement of [3H]paroxetine from rat cortical membranes; assay type: cell membranes, Membrane
Chain of Sodium-dependent serotonin transporter (P31652 whole entry): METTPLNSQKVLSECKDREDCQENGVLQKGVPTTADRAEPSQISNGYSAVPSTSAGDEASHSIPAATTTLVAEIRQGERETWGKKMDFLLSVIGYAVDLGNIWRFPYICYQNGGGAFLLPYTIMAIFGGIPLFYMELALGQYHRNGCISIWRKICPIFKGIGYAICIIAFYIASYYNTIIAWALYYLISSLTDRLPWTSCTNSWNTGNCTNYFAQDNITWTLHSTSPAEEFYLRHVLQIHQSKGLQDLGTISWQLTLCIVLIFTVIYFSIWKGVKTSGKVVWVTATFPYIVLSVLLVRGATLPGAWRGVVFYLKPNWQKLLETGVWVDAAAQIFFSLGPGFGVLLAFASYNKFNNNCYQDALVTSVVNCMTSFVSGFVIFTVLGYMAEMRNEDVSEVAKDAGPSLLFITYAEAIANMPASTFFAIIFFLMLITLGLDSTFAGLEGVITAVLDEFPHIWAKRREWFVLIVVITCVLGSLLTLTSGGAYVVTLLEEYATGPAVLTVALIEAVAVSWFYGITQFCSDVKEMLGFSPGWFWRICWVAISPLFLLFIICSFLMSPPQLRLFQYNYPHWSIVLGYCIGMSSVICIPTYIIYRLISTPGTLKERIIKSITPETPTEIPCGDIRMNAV

Emax [1]	Ki [2]	Ki [3]	SMILES
29%	14.3 nM	46.1 nM	COc1ccccc1N1CCN([C@H]2CC[C@H](c3c[nH]c4ccc(F)cc43)CC2)CC1
57%		67.2 nM	Fc1ccc2[nH]cc([C@H]3CC[C@H](N4CCN(c5cccc6c5OCCO6)CC4)CC3)c2c1
0%		5.31 nM	Fc1ccc2[nH]cc([C@H]3CC[C@@H](N4CCN(c5cccc6c5OCCO6)CC4)CC3)c2c1
80%	22.4 nM		COc1ccccc1OCCN[C@H]1CC[C@H](c2c[nH]c3ccc(F)cc32)CC1
59%		1.73 nM	Fc1ccc2[nH]cc([C@H]3CC[C@H](NCCOc4cccc5[nH]ccc45)CC3)c2c1
22%	307 nM		COc1ccccc1OCCN[C@H]1CC[C@@H](c2c[nH]c3ccc(F)cc32)CC1
27%		12.1 nM	Fc1ccc2[nH]cc([C@H]3CC[C@@H](NCCOc4cccc5c4OCCO5)CC3)c2c1
5%	129 nM	3.3 nM	COc1ccccc1N1CCN([C@H]2CC[C@@H](c3c[nH]c4ccc(F)cc43)CC2)CC1
43%		1.05 nM	Fc1ccc2[nH]cc([C@H]3CC[C@H](NCCOc4cccc5c4OCCO5)CC3)c2c1
94%	194 nM	14.1 nM	Fc1ccc2[nH]cc([C@H]3CC[C@H](NCC4COc5ccccc5O4)CC3)c2c1 (stereo not given in full)
7%		12.6 nM	Fc1ccc2[nH]cc([C@H]3CC[C@@H](NCCOc4cccc5[nH]ccc45)CC3)c2c1
44%	332 nM	23.2 nM	Fc1ccc2[nH]cc([C@H]3CC[C@@H](NCC4COc5ccccc5O4)CC3)c2c1 (stereo not given in full)

SMILES	Emax [1]	Ki [2]	Ki [3]
Fc1ccc2[nH]cc([C@H]3CC[C@@H](N4CCN(c5cccc6[nH]ccc56)CC4)CC3)c2c1	10%		
Fc1ccc2[nH]cc([C@H]3CC[C@H](N4CCN(c5cccc6[nH]ccc56)CC4)CC3)c2c1	43%		
